Values after ≈ are worked out from the molar mass of the structure shown. One block for each compound: values may come before it. Active and inactive are the calls of the source. The calls are words filed in the database; no cut-off is given here.
Tests used:
P388 = test: Antiproliferative activity against mouse P388 cells; assay type: functional; conditions: read-out: ED50 (the source's name)
Enterococcus faecalis [1] = test: Antibacterial activity against Enterococcus faecalis ATCC 29212 by broth microdilution assay; assay type: functional
BXPC-3 = test: Growth inhibition of human BxPC3 cells; assay type: functional
MCF7 = test: Growth inhibition of human MCF7 cells; assay type: functional
SF-268 = test: Growth inhibition of human SF268 cells; assay type: functional
NCI-H460 = test: Growth inhibition of human NCI-H460 cells; assay type: functional
KM-20L2 = test: Growth inhibition of human KM20L2 cells; assay type: functional
DU-145 = test: Growth inhibition of human DU145 cells; assay type: functional
Candida albicans = test: Antifungal activity against Candida albicans ATCC 90028 at 64 ug/ml by broth microdilution assay; assay type: functional, organism-based
[2] = tested on: Stenotrophomonas maltophilia; test: Antibacterial activity against Stenotrophomonas maltophilia ATCC 13637 at 64 ug/ml by broth microdilution assay; assay type: functional, organism-based
Micrococcus luteus = test: Antibacterial activity against Micrococcus luteus Presque Isle 456 at 64 ug/ml by broth microdilution assay; assay type: functional, organism-based
Staphylococcus aureus = test: Antibacterial activity against Staphylococcus aureus ATCC 29213 at 64 ug/ml by broth microdilution assay; assay type: functional, organism-based
Escherichia coli = test: Antibacterial activity against Escherichia coli ATCC 25922 at 64 ug/ml by broth microdilution assay; assay type: functional, organism-based
Enterobacter cloacae = test: Antibacterial activity against Enterobacter cloacae ATCC 13047 at 64 ug/ml by broth microdilution assay; assay type: functional, organism-based
Enterococcus faecalis [3] = test: Antibacterial activity against Enterococcus faecalis ATCC 29212 at 64 ug/ml by broth microdilution assay; assay type: functional, organism-based
Streptococcus pneumoniae = test: Antibacterial activity against Streptococcus pneumoniae ATCC 6303 at 64 ug/ml by broth microdilution assay; assay type: functional, organism-based
Neisseria gonorrhoeae = test: Antibacterial activity against Neisseria gonorrhoeae ATCC 49226 at 64 ug/ml by broth microdilution assay; assay type: functional, organism-based
Cryptococcus neoformans = test: Antifungal activity against Cryptococcus neoformans ATCC 90112 at 64 ug/ml by broth microdilution assay; assay type: functional, organism-based

SMILES: C[C@@H]1O[C@H]2OC(C)(OC/C=C3\CC[C@H]4[C@@H]5CC[C@H]6Cc7nc8c(nc7C[C@]6(C)[C@H]5[C@@H](O)C[C@]34C)C[C@@H]3CC[C@@H]4[C@H]([C@@H](O)C[C@]5(C)/C(=C/COC6(C)O[C@@H]7O[C@@H](C)[C@H](O)[C@@H](O)[C@H]7O6)CC[C@@H]45)[C@@]3(C)C8)O[C@@H]2[C@H](O)[C@H]1O (stereo partly specified)
EC50 (P388): > 10 µg/mL
GI50 (BXPC-3): 2.1 µg/mL (≈ 2.03 µM)
GI50 (MCF7): 2.8 µg/mL (≈ 2.71 µM)
GI50 (SF-268): 3 µg/mL (≈ 2.9 µM)
GI50 (NCI-H460): 3.8 µg/mL (≈ 3.68 µM)
GI50 (KM-20L2): 3.3 µg/mL (≈ 3.19 µM)
GI50 (DU-145): 3 µg/mL (≈ 2.9 µM)
Activity (Candida albicans): inactive
Activity [2]: inactive
Activity (Micrococcus luteus): inactive
Activity (Staphylococcus aureus): inactive
Activity (Escherichia coli): inactive
Activity (Enterobacter cloacae): inactive
Activity (Enterococcus faecalis [3]): inactive
Activity (Streptococcus pneumoniae): inactive
Activity (Neisseria gonorrhoeae): inactive
Activity (Cryptococcus neoformans): inactive

SMILES: C[C@]12Cc3nc4c(nc3C[C@@H]1CC[C@@H]1[C@@H]2[C@@H](O)C[C@]2(C)/C(=C/CO)CC[C@@H]12)C[C@@]1(C)[C@@H](CC[C@@H]2[C@@H]1[C@@H](O)C[C@]1(C)/C(=C/CO)CC[C@@H]21)C4
EC50 (P388): 1.5 µg/mL (≈ 2.28 µM)
GI50 (BXPC-3): 1.3 µg/mL (≈ 1.98 µM)
GI50 (MCF7): 1.3 µg/mL (≈ 1.98 µM)
GI50 (SF-268): 1.7 µg/mL (≈ 2.59 µM)
GI50 (NCI-H460): 2.2 µg/mL (≈ 3.35 µM)
GI50 (KM-20L2): 1.7 µg/mL (≈ 2.59 µM)
GI50 (DU-145): 1.8 µg/mL (≈ 2.74 µM)
Activity (Candida albicans): inactive
Activity [2]: inactive
Activity (Micrococcus luteus): inactive
Activity (Staphylococcus aureus): inactive
Activity (Escherichia coli): inactive
Activity (Enterobacter cloacae): inactive
Activity (Enterococcus faecalis [3]): inactive
Activity (Streptococcus pneumoniae): inactive
Activity (Neisseria gonorrhoeae): inactive
Activity (Cryptococcus neoformans): inactive

SMILES: CC(=O)O[C@@H]1[C@@H](OC(C)=O)[C@H](C)O[C@@H](OC/C=C2\CC[C@H]3[C@@H]4CC[C@H]5Cc6nc7c(nc6C[C@]5(C)[C@H]4[C@@H](O)C[C@]23C)C[C@@H]2CC[C@@H]3[C@H]([C@@H](O)C[C@]4(C)/C(=C/CO[C@H]5O[C@@H](C)[C@H](OC(C)=O)[C@@H](OC(C)=O)[C@H]5OC(C)=O)CC[C@@H]34)[C@@]2(C)C7)[C@@H]1OC(C)=O
EC50 (P388): > 10 µg/mL

SMILES: C[C@@H]1O[C@H](OC/C=C2\CC[C@H]3[C@@H]4CC[C@H]5Cc6nc7c(nc6C[C@]5(C)[C@H]4[C@@H](O)C[C@]23C)C[C@@H]2CC[C@@H]3[C@H]([C@@H](O)C[C@]4(C)/C(=C/CO[C@H]5O[C@@H](C)[C@H](O)[C@@H](O)[C@H]5O)CC[C@@H]34)[C@@]2(C)C7)[C@H](O)[C@H](O)[C@H]1O
EC50 (P388): > 10 µg/mL
GI50 (BXPC-3): 1.8 µg/mL (≈ 1.9 µM)
GI50 (MCF7): 1.8 µg/mL (≈ 1.9 µM)
GI50 (SF-268): 1.8 µg/mL (≈ 1.9 µM)
GI50 (NCI-H460): 1.8 µg/mL (≈ 1.9 µM)
GI50 (KM-20L2): 1.8 µg/mL (≈ 1.9 µM)
GI50 (DU-145): 2 µg/mL (≈ 2.11 µM)

SMILES: CC(=O)O[C@@H]1[C@@H](OC(C)=O)[C@H](C)O[C@H]2OC(C)(OC/C=C3\CC[C@H]4[C@@H]5CCC6=CC(=O)CC[C@]6(C)[C@H]5[C@@H](O)C[C@]34C)O[C@@H]21 (stereo partly specified)
EC50 (P388): 9.5 µg/mL (≈ 15.8 µM)

SMILES: C=C[C@]1(C)CCC2=C1C[C@H](O)[C@H]1[C@H]2CC[C@H]2Cc3nc4c(nc3C[C@@]21C)C[C@@H]1CC[C@H]2C3=C(C[C@H](O)[C@@H]2[C@@]1(C)C4)[C@](C)(C=C)CC3
EC50 (P388): > 10 µg/mL

SMILES: CC(=O)O[C@@H]1[C@@H](OC(C)=O)[C@H](C)O[C@H](OC/C=C2\CC[C@H]3[C@@H]4CC[C@H]5Cc6nc7c(nc6C[C@]5(C)[C@H]4[C@@H](O)C[C@]23C)C[C@@H]2CC[C@@H]3[C@H]([C@@H](O)C[C@]4(C)/C(=C/CO[C@H]5O[C@@H](C)[C@H](OC(C)=O)[C@@H](OC(C)=O)[C@H]5OC(C)=O)CC[C@@H]34)[C@@]2(C)C7)[C@@H]1OC(C)=O
EC50 (P388): > 10 µg/mL

SMILES: CC(=O)O[C@@H]1[C@@H](OC(C)=O)[C@H](C)O[C@H]2OC(C)(OC/C=C3\CC[C@H]4[C@@H]5CC[C@H]6Cc7nc8c(nc7C[C@]6(C)[C@H]5[C@@H](O)C[C@]34C)C[C@@H]3CC[C@@H]4[C@H]([C@@H](O)C[C@]5(C)/C(=C/COC6(C)O[C@@H]7O[C@@H](C)[C@H](OC(C)=O)[C@@H](OC(C)=O)[C@H]7O6)CC[C@@H]45)[C@@]3(C)C8)O[C@@H]21 (stereo partly specified)
EC50 (P388): > 10 µg/mL

SMILES: C[C@@H]1O[C@H]2OC(C)(OC/C=C3\CC[C@H]4[C@@H]5CCC6=CC(=O)CC[C@]6(C)[C@H]5[C@@H](O)C[C@]34C)O[C@@H]2[C@H](O)[C@H]1O (stereo partly specified)
EC50 (P388): 5.2 µg/mL (≈ 10 µM)

SMILES: CC(=O)O[C@@H]1[C@@H](OC(C)=O)[C@H](C)O[C@@H](OC/C=C2\CC[C@H]3[C@@H]4CC[C@H]5Cc6nc7c(nc6C[C@]5(C)[C@H]4[C@@H](O)C[C@]23C)C[C@@H]2CC[C@@H]3[C@H]([C@@H](O)C[C@]4(C)/C(=C/CO[C@@H]5O[C@@H](C)[C@H](OC(C)=O)[C@@H](OC(C)=O)[C@H]5OC(C)=O)CC[C@@H]34)[C@@]2(C)C7)[C@@H]1OC(C)=O
EC50 (P388): > 10 µg/mL

SMILES: CC(=O)O[C@@H]1[C@@H](OC(C)=O)[C@H](C)O[C@@H](OC/C=C2\CC[C@H]3[C@@H]4CCC5=CC(=O)CC[C@]5(C)[C@H]4[C@@H](O)C[C@]23C)[C@@H]1OC(C)=O
EC50 (P388): > 10 µg/mL

Second part, the compound after the results:

EC50 (P388): 77.2 µg/mL (≈ 104 µM)
MIC (Enterococcus faecalis [1]): 32 µg/mL (≈ 43.2 µM)
SMILES: CC(=O)OC/C=C1\CC[C@H]2[C@@H]3CC[C@H]4Cc5nc6c(nc5C[C@]4(C)[C@H]3[C@@H](O)C[C@]12C)C[C@@H]1CC[C@@H]2[C@H]([C@@H](O)C[C@]3(C)/C(=C/COC(C)=O)CC[C@@H]23)[C@@]1(C)C6

EC50 (P388): 6.6 µg/mL (≈ 14.6 µM)
SMILES: CC(=O)OC/C=C1\CC[C@H]2[C@@H]3CC[C@H]4CC(=O)[C@H](Br)C[C@]4(C)[C@H]3[C@@H](O)C[C@]12C

EC50 (P388): 12 µg/mL (≈ 28.9 µM)
SMILES: CC(=O)OC/C=C1\CC[C@H]2[C@@H]3CC[C@H]4CC(=O)[C@H](N=[N+]=[N-])C[C@]4(C)[C@H]3[C@@H](O)C[C@]12C

EC50 (P388): > 100 µg/mL
SMILES: CC(=O)OC/C=C1\CC[C@H]2[C@@H]3CCC4=CC(=O)CC[C@]4(C)[C@H]3[C@@H](O)C[C@]12C

EC50 (P388): > 100 µg/mL
SMILES: C[C@@H]1O[C@@H](OC/C=C2\CC[C@H]3[C@@H]4CCC5=CC(=O)CC[C@]5(C)[C@H]4[C@@H](O)C[C@]23C)[C@H](O)[C@H](O)[C@H]1O

EC50 (P388): 16.6 µg/mL (≈ 44.3 µM)
SMILES: CC(=O)OC/C=C1\CC[C@H]2[C@@H]3CC[C@H]4CC(=O)CC[C@]4(C)[C@H]3[C@@H](O)C[C@]12C

Reference: ChEMBL document CHEMBL1914451, “The cephalostatins. 21. Synthesis of bis-steroidal pyrazine rhamnosides (1)” (2011)
